# Measured values reported in US6010890A, “Method for viral inactivation and compositions for use in same” (New York Blood Center, Inc., priority 1997, dated 2000).
# “Also recorded” adds a separate entry of the source. Read-outs that look alike come from different tables or passages of the source.
# Experiments:
# RBC [1] = test: Hemolysis after 21 day storage of RBCC treated with liposomal Pc4 and formulations of tocopherol succinate (Example 3); assay type: cell-based; settings: with 2 μM liposomal Pc4, 10 J/cm^2, 670 nm, 4° C.
# Method: RBCC were treated with 2 μM Pc4 in POPC:DOPC=4:1 liposomes in the presence of 1 mM tocopherol succinate in the formulations presented in Table 4 below, and exposed to 10 J/cm^2 of red light (670 nm) emitted by LED array. The RBCC were then stored for 21 days at 4° C.
# baboon RBC = test: Circulatory survival of baboon RBC after virucidal treatment (preliminary); assay type: in vivo
# HIV (cell-free) = test: Virus inactivation in RBCC using Pc4 and red light: HIV cell-free (Example 2); assay type: cell-based; settings: for Light Dose (for ≥6 log10 virus kill): HIV (cell-free), Pc4 2 μM with 4 mM cysteine, 1 mM tocopherol succinate, 0.5 mM carnitine, 670 nm LED
# HIV (cell-assoc.) = test: Virus inactivation in RBCC using Pc4 and red light: HIV cell-associated (Example 2); assay type: cell-based
# VSV [2] = assay type: cell-based; settings: for Light Dose (for ≥6 log10 virus kill): Pc4 2 μM with 4 mM cysteine, 1 mM tocopherol succinate, 0.5 mM carnitine, 670 nm LED
# RBC [3] = test: RBC hemolysis during storage following virucidal treatment (Example 1); assay type: cell-based, human
# Method: FIG. 2 represents RBC hemolysis during storage following virucidal treatment. Pc4 was added into RBCC in the indicated delivery vehicle at a final concentration of 2 μM and exposed to 90 J/cm2 broad band red light at room temperature after the indicated incubation time at room temperature. The treated RBCC were stored at 4° C. prior to assay.
# FIG. 4 represents RBC hemolysis during storage following virucidal treatment. PC4 was added to RBCC in the indicated liposomal formulations at 2 μM and exposed to 668 nm light at room temperature and the indicated dose after 5 minutes incubation. The treated RBCC were stored at 4° C. prior to assay.
# FIG. 6 represents RBC hemolysis during storage following virucidal treatment. […] The treated RBCC were stored at 4° C. prior to assay.
# RBCC samples (3 ml in polystyrene tubes) at hematocrit of 58-60% in ADSOL (obtained from Blood Services, New York Blood Center) were irradiated with red light either as a broad band (600-800 nm) or as a narrow band at 668 nm or 700 nm. Broad band light was from a 300 W xenon lamp (Oriel Corp., Stratford, Conn.) equipped with a cutoff filter (λ>600 nm) with an irradiance of 25 mW/cm^2. Narrow band light (27 nm bandwidth at half-height) was from LED arrays (Efos Canada, Inc., Mississauga, Ontario, Canada) emitting at either 668 nm or 700 nm with an irradiance of 50 mW/cm^2. During irradiation the samples were rotated and rolled on a hematology mixer (Fisher Scientific, Inc., Pittsburgh, Pa.) to obtain even exposure. Temperature was kept at 25 or 4° C. by an air stream of appropriate temperature.
# Samples of RBCC were stored after treatment at 4° C. The extent of hemolysis was determined by comparing the hemoglobin in the supernatant to the total hemoglobin. The total hemoglobin was determined by using the Drabkin reagent (Sigma Procedure #525, Sigma Chemical Co., St. Louis, Mo.). The absorption at 540 nm was used to calculate the amount of hemoglobin released in the supernatant.
# BDV = test: Virus inactivation in RBCC using Pc4 and red light: BDV (Example 2); assay type: cell-based; settings: for Light Dose (for ≥6 log10 virus kill): Pc4 2 μM with 4 mM cysteine, 1 mM tocopherol succinate, 0.5 mM carnitine, 670 nm LED
# HIV = assay type: cell-based
# VSV [4] = assay type: cell-based
# RBC [5] = test: Binding of Pc4 to RBC in RBCC (HPLC after extraction); assay type: in vitro ADME, human; settings: for Pc4 Bound to RBC: 2 μM
# Method: The amount of Pc4 bound to RBC in the RBCC was measured using HPLC and extraction procedure described previously (Zuk, M. M., et al. J. Chromat. B Biomed. Appl. 673:220-224 (1995)). Amount of Pc4 was expressed as a percentage of the total recovered in RBCC. Recovery of Pc4 was about 90% (±10%).
# ^1 Pc4 was added into RBCC at 2 μM final concentration. At various
# times thereafter at room temperature, RBC were separated by
# centrifugation, rinsed 5 times with PBS, and Pc4 was extracted and
# analyzed by HPLC, as described. Pc4 not bound to RBC was recovered
# quantitatively from the plasma.
# ^1 Pc4 was added into RBCC at 2 μM final concentration formulated
# in the indicated liposomes. After 35 minutes at 4° C., RBC were
# separated by centrifugation, rinsed 5 times with PBS, and Pc4 was analyze
# Method for rabbit RBC: Pc4 was added to rabbit RBCC in POPC:DOPS=4:1 liposomes at 2 μM and exposed to 0, 10 and 15 J/cm^2, as indicated, of 700 nm light at room temperature after 5 minutes pre-irradiation incubation. The treated RBCC were labeled with ^51 CrO^2- and their circulatory survival assayed as described in Materials and Methods.
# Rabbit RBCC were treated as described for human red cells and their circulatory survival was determined as described previously (Rywkin, S., et al. Photochem. Photobiol. 56:463-469 (1992). Briefly, treated red cells were labelled with 1 μCi/ml Na2 ^51 CrO4 for 1 hour at room temperature and then thoroughly washed with PBS. The labelled cells were infused autologously. At intervals, 1 ml blood was withdrawn and the radioactivity associated with RBC was determined.
compound,measurement,setting,value
Cc1c(C)c2c(c(C)c1OC(=O)CCC(=O)O)CCC(C)(CCCC(C)CCCC(C)CCCC(C)C)O2 (stereo not drawn) [α-tocopherol succinate],Hemolysis After 21 Day Storage,RBC [1]; 1 mM α-tocopherol succinate formulated in Ethanol,10.5%
same,Hemolysis After 21 Day Storage,RBC [1]; 1 mM α-tocopherol succinate formulated in POPC:DOPS = 4:1,18.3%
same,Hemolysis After 21 Day Storage,RBC [1]; 1 mM α-tocopherol succinate formulated in POPC:DOPS:chol = 9:1:10,6.1%
same,Hemolysis After 21 Day Storage,RBC [1]; 1 mM α-tocopherol succinate formulated in POPC,1.2%
"CN(C)CCC[Si](C)(C)O[Si]1(O)n2c3c4ccccc4c2N=C2N=C(N=c4c5ccccc5c(n41)=NC1=NC(=N3)c3ccccc31)c1ccccc12 (stereo not drawn) [Pc4, hydroxysiloxydimethylpropyl-N-dimethyl silicon phthalocyanine]",effect on circulatory survival of red cells,"baboon RBC; baboon, 10 J/cm^2 of 700 nm light",only a slight effect
same,24 hour recovery in vivo of the treated RBC,baboon RBC; baboons,exceeded 90%
same,circulatory half-life and 24 hour recovery,"baboon RBC; baboons, liposomal Pc4, 10 J/cm^2, 700 nm",essentially normal
same,circulatory half-life of RBC,"baboon RBC; baboons, liposomal Pc4 and 10 J/cm2 of 700 nm light, from 13.2 days, preliminary",278 h
same,Light Dose (for ≥6 log10 virus kill),HIV (cell-free); Blood Bags (50 ml),55 J/cm2
same,Light Dose (for ≥6 log10 virus kill),HIV (cell-free); Test Tubes (3 ml),15 J/cm2
same,virus kill,"HIV (cell-free); HIV, at the light doses of Table 3",≥ 6 log10
same,Light Dose (for ≥6 log10 virus kill),"HIV (cell-assoc.); Blood Bags (50 ml), Pc4 2 μM with 4 mM cysteine, 1 mM tocopherol succinate, 0.5 mM carnitine, 670 nm LED",55 J/cm2
same,Light Dose (at this dose only 4 log10 kill),"HIV (cell-assoc.); Test Tubes (3 ml), Pc4 2 μM with 4 mM cysteine, 1 mM tocopherol succinate, 0.5 mM carnitine, 670 nm LED",15 J/cm2
same,virus kill,"HIV (cell-assoc.); Test Tubes, 15 J/cm2",4 log10
same,Light Dose (for ≥6 log10 virus kill),VSV [2]; Blood Bags (50 ml),22 J/cm2
same,Light Dose (for ≥6 log10 virus kill),VSV [2]; Test Tubes (3 ml),5 J/cm2
same,virus kill,VSV [2]; at the light doses of Table 3,≥ 6 log10
same,"hemolysis development during storage, 668 nm compared with 700 nm LED","RBC [3]; Pc4 2 μM in POPC:DOPS=4:1 liposomes, 10 J/cm^2 (FIG. 6)",much faster
same,"rate of hemolysis during storage, 700 nm LED compared with untreated control","RBC [3]; Pc4 2 μM in POPC:DOPS=4:1 liposomes, 10 J/cm^2 of 700 nm light (FIG. 6)",only slightly faster than in control
same,RBC damage / hemolysis at equivirucidal doses,"RBC [3]; Pc4 2 μM in POPC:DOPS=4:1 liposomes, 668 nm (FIG. 4)",least RBC damage; also recorded: minimal hemolysis
same,"RBC hemolysis during storage, liposomes vs other vehicles","RBC [3]; Pc4 2 μM, 90 J/cm2 broad band red light, 4° C. storage (FIG. 2)",less hemolysis
same,"RBC hemolysis during storage, effect of incubation time","RBC [3]; liposomal Pc4 2 μM, 90 J/cm2 broad band red light (FIG. 2)",incubation for 5 minutes was better than for 30 minutes
same,hemolysis following a virucidal light dose,"RBC [3]; liposomal Pc4, 10 J/cm^2, 700 nm, over 3 weeks storage, 30240 min, 2 µM",≤ 1%
same,Light Dose (for ≥6 log10 virus kill),BDV; Blood Bags (50 ml),30 J/cm2
same,Light Dose (for ≥6 log10 virus kill),BDV; Test Tubes (3 ml),7 J/cm2
same,virus kill,BDV; at the light doses of Table 3,≥ 6 log10
same,viral reduction of HIV versus RBC hemolysis,HIV,best viral reduction of HIV with the least amount of RBC hemolysis
same,reduction of circulatory survival of red cells,"rabbit RBC; rabbit, 10 J/cm^2 of 700 nm light (FIG. 7)",about 30%
same,24 hour recovery in vivo of the treated RBC,rabbit RBC; rabbits,exceeded 90%
same,circulatory half-life of RBC,"rabbit RBC; rabbits, 10 J/cm^2 of 700 nm light, control 10.5 days (FIG. 7)",180 h
same,circulatory half-life and 24 hour recovery,"rabbit RBC; rabbits, liposomal Pc4, 10 J/cm^2, 700 nm",close to normal
same,"inactivation of VSV, 668 vs 700 nm LED","VSV [4]; Pc4 2 μM in POPC:DOPS=4:1 liposomes, 4° C. (FIG. 5)",equally effective
same,"rate of inactivation of VSV, dependence on pre-irradiation incubation time","VSV [4]; liposomal Pc4 2 μM, broad band red light (FIG. 1)",does not depend on time of incubation of liposomal Pc4 prior to light exposure
same,"VSV kill, effect of incubation temperature",VSV [4]; room temperature vs 4° C.,not affected by the incubation temperature
same,Pc4 binding to RBC at room temperature compared with 4° C.,"RBC [5]; POPC:DOPS=9:1 liposomes, Tables 1 and 2",more binding to RBC than at 4 °C
same,Pc4 Bound to RBC,"RBC [5]; delivery vehicle CRM, incubation time 0 min, room temperature",59%
same,Pc4 Bound to RBC,"RBC [5]; delivery vehicle CRM, incubation time 5 min, room temperature",58%
same,Pc4 Bound to RBC,"RBC [5]; delivery vehicle CRM, incubation time 30 min, room temperature",58%
same,Pc4 Bound to RBC,"RBC [5]; delivery vehicle CRM, incubation time 90 min, room temperature",64%
same,Pc4 Bound to RBC,"RBC [5]; delivery vehicle DMSO, incubation time 0 min, room temperature",54%
same,Pc4 Bound to RBC,"RBC [5]; delivery vehicle DMSO, incubation time 5 min, room temperature",54%
same,Pc4 Bound to RBC,"RBC [5]; delivery vehicle DMSO, incubation time 30 min, room temperature",56%
same,Pc4 Bound to RBC,"RBC [5]; delivery vehicle DMSO, incubation time 90 min, room temperature",54%
same,Pc4 Bound to RBC,"RBC [5]; delivery vehicle Liposomes (POPC:DOPS = 9:1), incubation time 0 min, room temperature",6%
same,Pc4 Bound to RBC,"RBC [5]; delivery vehicle Liposomes (POPC:DOPS = 9:1), incubation time 5 min, room temperature",9%
same,Pc4 Bound to RBC,"RBC [5]; delivery vehicle Liposomes (POPC:DOPS = 9:1), incubation time 30 min, room temperature",15%
same,Pc4 Bound to RBC,"RBC [5]; delivery vehicle Liposomes (POPC:DOPS = 9:1), incubation time 90 min, room temperature",44%
same,Pc4 Bound to RBC,"RBC [5]; liposomal preparation POPC:DOPS = 1:1, 35 minutes at 4° C.",0.8%
same,Pc4 Bound to RBC,"RBC [5]; liposomal preparation POPC:DOPS = 1:2, 35 minutes at 4° C.",1.0%
same,Pc4 Bound to RBC,"RBC [5]; liposomal preparation POPC:DOPS = 4:1, 35 minutes at 4° C.",4.4%
same,Pc4 Bound to RBC,"RBC [5]; liposomal preparation POPC:DOPS = 9:1, 35 minutes at 4° C.",4.8%
same,Pc4 Bound to RBC,"RBC [5]; liposomal preparation POPC:DOPS:PEG = 8:1:1, 35 minutes at 4° C.",23.5%
same,Pc4 Bound to RBC,"RBC [5]; liposomal preparation POPC:DOPS:chol = 9:1:10, 35 minutes at 4° C.",33.7%
same,"Pc4 binding to red cells, effect of liposome composition","RBC [5]; words, PEG, cholesterol or DOPS ratio as stated (Table 2)",progressively reduced binding of Pc4 to red cells
